Results on 18 molecules are retold here after US9718819B2 (Merck Sharp & Dohme Corp., priority 2012, dated 2017).

Each structure is given as a SMILES string. pIC50: −log10 of the molar value.

For this assay, the target named is HIV-1 RT wild-type enzyme (Human immunodeficiency virus type 1 group M subtype B (isolate HXB2) (HIV-1), UniProt P04585). Kind of assay: HIV-1 reverse transcriptase inhibitory activity (RT polymerase assay). It counts as biochemical. Particulars: HIV-1 RT wild-type enzyme 83 pM; RNA-dependent DNA polymerase activity; read-out: IC50. The procedure:
Determination of HIV-1 Reverse Transcriptase Inhibitory Activity
The heterodimeric nucleic acid substrate used in the HIV-1 RT polymerase reactions was generated by annealing the DNA primer, biotinylated pD500 (Sigma Aldrich, USA, 5′-biotin-ttg aaa tga ctg cgg tac ggc-3′), SEQ ID NO. 1 to the nucleotide RNA template t500 (derived from hepatitis C virus [HCV] sequence, IBA, Germany, 5′-[…]-3′), SEQ ID NO 2). […] The mixture was then preincubated on an orbital shaker for 30 min at room temperature in microtiter plates (Costar 3365, Corning, USA). A polymerization reaction was initiated by the addition of RNA template/pD500 DNA primer hybrid (16.6 nM final of RNA/DNA hybrid) and dNTPs (2 μM dATP, dGTP, dCTP and 66.6 nM Ru-dUTP (Meso Scale Discovery, USA)). Plate was sealed and incubated for 5-10 min at room temperature on an orbital shaker. Plate was then incubated for 90 min at 37° C. and reactions quenched with 60 μl quenching buffer (50 mM EDTA, 0.7% BSA, 0.7% Tween-20, 0.017% sodium azide in PBS). The resulting solution was incubated at room temperature for an additional 5 min and then 50 μL was transferred to pre-blocked Avidin plates (L15AA, Meso Scale Discovery). Each well of Avidin plate was blocked for 1 h at room temperature with 100 μL 5% BSA in PBS. Blocking solution was removed by tapping vigorously on filter paper to remove all excess liquid. Reaction on pre-blocked avidin plate proceeded for 60 min at room temperature and then contents removed by tapping vigorously on filter paper to remove all excess liquid. After washing plate 3 times with 150 μL 1×PBS and blotting dry between cycles, 150 μL 1× Read Buffer T (4× Read Buffer T, Meso Scale Discovery) was added and incubated for 5 min at room temperature before counting on a Sector Imager […] (Meso Scale Discovery). Titration curves and IC50 values were calculated using a four parameter logisitc fit according to standard procedures. Briefly, % Inhibition=100×((sample raw value)−(mean value of the low control or 0% inhibition))/((mean value of wells representing 100% inhbition)−(mean value of 0% inhbition)). In this assay, low control wells contain DMSO (0% inhbition) and 100% inhibition wells contain 1 μM efavirenz.

In the case of `N#Cc1cc(Cl)cc(Oc2c(C(F)(F)F)ncn(Cc3cc(-c4ccc(Cl)cc4)c(=O)[nH]n3)c2=O)c1` [Example 28, 3-chloro-5-((1-((5-(4-chlorophenyl)-6-oxo-1,6-dihydropyridazin-3-yl)methyl)-6-oxo-4-(trifluoromethyl)-1,6-dihydropyrimidin-5-yl)oxy)benzonitrile], the pIC50 was 8.30.

In the case of `N#Cc1cc(Cl)cc(Oc2c(C(F)(F)F)ncn(Cc3cc(-c4ccc(F)c(F)c4)c(=O)[nH]n3)c2=O)c1` [Example 29, 3-chloro-5-((1-((5-(3,4-difluorophenyl)-6-oxo-1,6-dihydropyridazin-3-yl)methyl)-6-oxo-4-(trifluoromethyl)-1,6-dihydropyrimidin-5-yl)oxy)benzonitrile], the negative logarithm of the IC50 (pIC50) was 8.52.

`N#Cc1cc(Cl)cc(Oc2c(C(F)(F)F)ncn(Cc3cc(-c4ccc(OC(F)F)cc4)c(=O)[nH]n3)c2=O)c1` [Example 30, 3-chloro-5-((1-((5-(4-(difluoromethoxy)phenyl)-6-oxo-1,6-dihydropyridazin-3-yl)methyl)-6-oxo-4-(trifluoromethyl)-1,6-dihydropyrimidin-5-yl)oxy)benzonitrile]: the negative-log IC50 (pIC50) was 8.40.

As to `Cc1ccc(-c2cc(Cn3cnc(C(F)(F)F)c(Oc4cc(Cl)cc(C#N)c4)c3=O)n[nH]c2=O)cc1` [Example 31, 3-chloro-5-((6-oxo-1-((6-oxo-5-(p-tolyl)-1,6-dihydropyridazin-3-yl)methyl)-4-(trifluoromethyl)-1,6-dihydropyrimidin-5-yl)oxy)benzonitrile], the negative-log IC50 (pIC50) is 8.30.

Take `CC(C)Oc1ccc(-c2cc(Cn3cnc(C(F)(F)F)c(Oc4cc(Cl)cc(C#N)c4)c3=O)n[nH]c2=O)cc1F` [Example 32, 3-chloro-5-((1-((5-(3-fluoro-4-isopropoxyphenyl)-6-oxo-1,6-dihydropyridazin-3-yl)methyl)-6-oxo-4-(trifluoromethyl)-1,6-dihydropyrimidin-5-yl)oxy)benzonitrile]: the pIC50 is 7.89.

For `N#Cc1cc(Cl)cc(Oc2c(C(F)(F)F)ncn(Cc3cc(-c4cc(F)cc(F)c4)c(=O)[nH]n3)c2=O)c1` [Example 33, 3-chloro-5-((1-((5-(3,5-difluorophenyl)-6-oxo-1,6-dihydropyridazin-3-yl)methyl)-6-oxo-4-(trifluoromethyl)-1,6-dihydropyrimidin-5-yl)oxy)benzonitrile], the pIC50 was 8.15.

With `N#Cc1cc(Cl)cc(Oc2c(C(F)(F)F)ncn(Cc3cc(-c4ccc(F)c(Cl)c4)c(=O)[nH]n3)c2=O)c1` [Example 34, 3-chloro-5-((1-((5-(3-chloro-4-fluorophenyl)-6-oxo-1,6-dihydropyridazin-3-yl)methyl)-6-oxo-4-(trifluoromethyl)-1,6-dihydropyrimidin-5-yl)oxy)benzonitrile], the negative logarithm of the IC50 (pIC50) is 8.15.

On to `N#Cc1cc(Cl)cc(Oc2c(C(F)(F)F)ncn(Cc3cc(-c4ccc(F)cc4F)c(=O)[nH]n3)c2=O)c1` [Example 35, 3-chloro-5-((1-((5-(2,4-difluorophenyl)-6-oxo-1,6-dihydropyridazin-3-yl)methyl)-6-oxo-4-(trifluoromethyl)-1,6-dihydropyrimidin-5-yl)oxy)benzonitrile], for which the negative logarithm of the IC50 (pIC50) was 8.10.

For the molecule `N#Cc1cc(Cl)cc(Oc2c(C(F)(F)F)ncn(Cc3cc(-c4cccc(Cl)c4)c(=O)[nH]n3)c2=O)c1` [Example 36, 3-chloro-5-((1-((5-(3-chlorophenyl)-6-oxo-1,6-dihydropyridazin-3-yl)methyl)-6-oxo-4-(trifluoromethyl)-1,6-dihydropyrimidin-5-yl)oxy)benzonitrile], the pIC50 is 8.40.

Take `Cc1cc(-c2cc(Cn3cnc(C(F)(F)F)c(Oc4cc(Cl)cc(C#N)c4)c3=O)n[nH]c2=O)ccc1F` [Example 37, 3-chloro-5-((1-((5-(4-fluoro-3-methylphenyl)-6-oxo-1,6-dihydropyridazin-3-yl)methyl)-6-oxo-4-(trifluoromethyl)-1,6-dihydropyrimidin-5-yl)oxy)benzonitrile]: the pIC50 was 8.30.

Take `Cc1cccc(-c2cc(Cn3cnc(C(F)(F)F)c(Oc4cc(Cl)cc(C#N)c4)c3=O)n[nH]c2=O)c1F` [Example 38, 3-chloro-5-((1-((5-(2-fluoro-3-methylphenyl)-6-oxo-1,6-dihydropyridazin-3-yl)methyl)-6-oxo-4-(trifluoromethyl)-1,6-dihydropyrimidin-5-yl)oxy)benzonitrile]: the negative logarithm of the IC50 (pIC50) is 6.96.

With `Cc1ccc(F)c(-c2cc(Cn3cnc(C(F)(F)F)c(Oc4cc(Cl)cc(C#N)c4)c3=O)n[nH]c2=O)c1` [Example 39, 3-chloro-5-((1-((5-(2-fluoro-5-methylphenyl)-6-oxo-1,6-dihydropyridazin-3-yl)methyl)-6-oxo-4-(trifluoromethyl)-1,6-dihydropyrimidin-5-yl)oxy)benzonitrile], the negative logarithm of the IC50 (pIC50) was 8.00.

Turning to `N#Cc1cc(Cl)cc(Oc2c(C(F)(F)F)ncn(Cc3cc(-c4ccc(F)cc4Cl)c(=O)[nH]n3)c2=O)c1` [Example 40, 3-chloro-5-((1-((5-(2-chloro-4-fluorophenyl)-6-oxo-1,6-dihydropyridazin-3-yl)methyl)-6-oxo-4-(trifluoromethyl)-1,6-dihydropyrimidin-5-yl)oxy)benzonitrile], the negative-log IC50 (pIC50) was 7.15.

As to `N#Cc1cc(Cl)cc(Oc2c(C(F)(F)F)ncn(Cc3cc(-c4cccc(F)c4Cl)c(=O)[nH]n3)c2=O)c1` [Example 41, 3-chloro-5-((1-((5-(2-chloro-3-fluorophenyl)-6-oxo-1,6-dihydropyridazin-3-yl)methyl)-6-oxo-4-(trifluoromethyl)-1,6-dihydropyrimidin-5-yl)oxy)benzonitrile], the pIC50 is 7.23.

As to `Cc1ccc(-c2cc(Cn3cnc(C(F)(F)F)c(Oc4cc(Cl)cc(C#N)c4)c3=O)n[nH]c2=O)c(F)c1` [Example 42, 3-chloro-5-((1-((5-(2-fluoro-4-methylphenyl)-6-oxo-1,6-dihydropyridazin-3-yl)methyl)-6-oxo-4-(trifluoromethyl)-1,6-dihydropyrimidin-5-yl)oxy)benzonitrile], the negative logarithm of the IC50 (pIC50) was 8.15.

Take `N#Cc1cc(Cl)cc(Oc2c(C(F)(F)F)ncn(Cc3cc(-c4cccc(Cl)c4F)c(=O)[nH]n3)c2=O)c1` [Example 43, 3-chloro-5-((1-((5-(3-chloro-2-fluorophenyl)-6-oxo-1,6-dihydropyridazin-3-yl)methyl)-6-oxo-4-(trifluoromethyl)-1,6-dihydropyrimidin-5-yl)oxy)benzonitrile]: the pIC50 is 8.05.

As for `COc1cccc(-c2cc(Cn3cnc(C(F)(F)F)c(Oc4cc(Cl)cc(C#N)c4)c3=O)n[nH]c2=O)c1F` [Example 44, 3-chloro-5-((1-((5-(2-fluoro-3-methoxyphenyl)-6-oxo-1,6-dihydropyridazin-3-yl)methyl)-6-oxo-4-(trifluoromethyl)-1,6-dihydropyrimidin-5-yl)oxy)benzonitrile], the pIC50 is 8.40.

On to `COc1ccc(-c2cc(Cn3cnc(C(F)(F)F)c(Oc4cc(Cl)cc(C#N)c4)c3=O)n[nH]c2=O)c(F)c1` [Example 45, 3-chloro-5-((1-((5-(2-fluoro-4-methoxyphenyl)-6-oxo-1,6-dihydropyridazin-3-yl)methyl)-6-oxo-4-(trifluoromethyl)-1,6-dihydropyrimidin-5-yl)oxy)benzonitrile], for which the negative logarithm of the IC50 (pIC50) is 8.22.
